Measured values as given in patent US10085955B2, “Methods and compositions for treatment of demyelinating diseases” (Pathologica LLC, priority 2013, dated 2018).
Marks after values point to notes of the source that are not given here.

Legend:
CNS-infiltrating cells = assay: Fourth MOG EAE protocol, flow cytometric analysis of CNS-infiltrating cells at onset and peak; assay type: in vivo, C57BL/6 mice
Experimental: A fourth EAE experiment was run similarly to the above, but was designed to examine the effect of MGBG on cell populations during onset and peak disease. In this protocol, there were 3 experimental groups with 20 mice/group and 1 mock-immunized group with 8 mice. Fingolimod was dosed at 1 mpk QD, MGBG at 30 mpk BID, and the pertussis toxin was administered at 165 ng/dose for both injections. Flow cytometric analysis was performed on CNS-infiltrating cells from 16 mice from each of the vehicle-, fingolimod- and MGBG-treated groups, as well as from all mice in the mock-immunized group. Half of the analyzed mice from each group were collected at the time of EAE onset in the vehicle group and half were collected at the time of EAE peak in the vehicle group. Mouse termination was over eight separate days, because individual mouse in the vehicle group reached EAE onset and EAE peak on different days. Eight (8) of the mice in the vehicle group were sacrificed at each time-point. For each of these mice, a matching mouse from each of Groups 2 and 3 was sacrificed on the same day. For each two (2) of these vehicle group mice, a matching mouse from Group 4 was sacrificed. When selecting matching mice from other groups for termination, the mouse with the highest EAE score was chosen. If no mouse in the group had signs of EAE, a mouse was chosen at random.

[1] = test system: PGE2 production in carrageenan air pouch; assay: Carrageenan air pouch model; assay type: in vivo, Lewis rats
From the text: Injection of air subcutaneously will induce the formation of a connective tissue cavity lined with cells that resemble and function like a synovial lining. This method is commonly known as the Air Pouch Model and is a useful animal model of inflammation that can be generated in a relatively short period of time. The air pouch may be created by subcutaneous (SQ) injection of a volume of sterile air in the dorsal neck region. The model may be used to test the efficacy and potency of compounds such as polyamine analogues and polyamine biosynthesis inhibitors such as MGBG in reducing various cellular and biochemical indicators of inflammation when administered as an oral (PO) gavage administration. Healthy Male Lewis rats (Charles River Laboratories, Wilmington, Mass.) weighing between 175-200 g were used. […] A correction factor of 1.49 was used to account for the dihydrochloride salt/monohydrate form of MGBG. […] Air pouches were formed on the dorsum of the rats during the last 4 days of MGBG or vehicle administration prior to carrageenan injection. Briefly, rats were anesthetized with isoflurane, during which dorsal hair was removed and 20 mL of sterile air was injected subcutaneously into the intrascapular region. Pouches were allowed to develop for the next 4 days, with re-inflation (to maintain pouch volume) of pouches 1 day prior to carrageenan injection. One hour prior to carrageenan injection, animals were given their last dose of drug (MGBG, vehicle, naproxen, or dexamethasone). A 1% suspension of carrageenan (2 mL; FMC BioPolyer, Philadelphia, Pa.) suspended in saline was injected into the pouch cavity. At either 3 hours or 24 hours post-carrageenan injection, rats were euthanized by CO2 asphyxiation and 2.5 mL of PBS (Sigma Chemical, St. Louis, Mo.) was injected directly into the pouch. The pouch was opened with surgical scissors and the pouch fluid was collected using a transfer pipette. One aliquot was collected for measurement of total cell count with differential, and the other aliquot for PGE2 determination. […]

[2] = test system: carrageenan-induced paw edema and hyperalgesia; assay: Carrageenan paw test for edema and hyperalgesia; assay type: in vivo, Swiss Webster mice
From the text: Injection of carrageenan subcutaneously into the hind foot (paw) of a rat or mouse induces robust inflammation and pain. The inflammatory response begins 1-2 hrs post-carrageenan injection and persists for at least five hours following inoculation. In addition, the animal's inflamed hind paw is sensitive to noxious (hyperalgesia) or innocuous (allodynia) stimuli, compared to the contralateral hind paw. Compounds can be evaluated in this model for anti-hyperalgesia and anti-inflammatory activity. […] It is possible that some compounds will affect the inflamed paw and not affect the responses of the contralateral paw.
Embodiments of the carrageenan foot edema test are performed with materials, reagents and procedures essentially as described by Winter, et al., (Proc. Soc. Exp. Biol. Med., 111, 544 (1962)). Prophylactic and therapeutic embodiments have been developed, and are known in the art. The animals are evaluated for their responsiveness to noxious (paw pinch, plantar test) or innocuous (cold plate, von Frey filaments) stimuli. In the following protocol, mice were used.
Healthy young male Swiss Webster mice in which weight variation of the mice will not exceed ±20% of the mean were used for the study. Animals were divided into four groups of forty, and each group was dosed by oral gavage with either MGBG (BID, 12 hours apart at 30 mg/kg in 5 mL/kg normal saline), dexamethasone as positive control (QD, 1 mg/kg in 5 mL/kg 0.5% methylcellulose), or saline vehicle (BID, 5 mL/kg). […]
Immediately before sub-plantar administration of carrageenan and after 2, 3, 5 and 24 hours post carrageenan, mouse paw volume was measured using the plethysmometer (Ugo Basile). The assessment of edema was expressed as the mean increase in paw volume relative to control.
Prior to sub-plantar administration of carrageenan and after 0.5, 2, 3, 5, and 24 hours post-carrageenan, the latency of withdrawal response was determined by placing mice on a hot plate analgesia meter with surface temperature maintained at 51° C. […] Paw withdrawal latency is calculated as Δt=right paw withdrawal—left paw withdrawal. […]

## CC(/C=N/NC(=N)N)=N\NC(=N)N [MGBG, 1,1′ [methylethanediylidene]dinitrilodiguanidine]
CNS-infiltrating cells; Onset
  CD4+ IFNy+: 3.19 +/− # cells (10^3)
  CD4+ IFNγ+: 9.57 % cells
  CD4+ IL-17A+ IFNy+: 1.56 +/− # cells (10^3)
  CD4+ IL-17A+ IFNγ+: 4.14 % cells
CNS-infiltrating cells; Peak
  CD4+ IFNy+: 4.57 +/− # cells (10^3)
  CD4+ IFNγ+: 9.37 % cells
  CD4+ IL-17A+ IFNy+: 3.01 +/− # cells (10^3)
  CD4+ IL-17A+ IFNγ+: 5.45 % cells
CNS-infiltrating cells; fourth study, MGBG 30 mpk BID
  CNS infiltration by proinflammatory cells: reduced
CNS-infiltrating cells; fourth study, MGBG 30 mpk BID vs fingolimod 1 mpk QD
  proportion and number of infiltrating dendritic cells: reduced in MGBG-treated mice more than in fingolimod-treated mice
CNS-infiltrating cells; subset of animals which did not develop disease when vehicle-treated animals were at peak
  CD11c+ of CD4− CD45.2+ high cells In Peak of Disease in Animals Without EAE Disease: 2.93 +/− 0.37
[1]; rat pouch fluid, 3 or 24 hours post-carrageenan, naproxen 10 mg/kg, dexamethasone 1 mg/kg
  production of PGE2 (inflammatory and basal levels): selectively inhibited peak inflammatory production of PGE2, without affecting basal levels
[1]; rats, MGBG 1-60 mg/kg PO once daily 6 days
  efficacy, changes relative to control indicative of reduced inflammation: efficacious
[2]; mice, 3 mg/kg PO BID and 10 mg/kg PO BID
  efficacy at lower doses: observed efficacy
[2]; mice, MGBG PO BID (30 mg/kg; alternative 3, 10, 30 mg/kg)
  edema and hyperalgesia: efficacious in reducing edema and hyperalgesia
[2]; murine carrageenan-induced paw edema and hyperalgesia models
  top efficacious dose: 30 mg/kg PO BID
